Assay results as given in patent US20260022142A1, “MACROCYCLIC IMMUNOMODULATORS” (Bristol-Myers Squibb Company, priority 2022, published 2026).
Bridge positions count the residues as written; N and C are the ends. Square brackets hold non-standard residues; d marks the D form. Peptide text beside a SMILES is read from it. * marks the point of attachment. ξ: configuration not given here. Phe(3-CF3) = N[C@@H](Cc1cccc(C(F)(F)F)c1)C(=O)O; Phe(4-COOH) = N[C@@H](Cc1ccc(C(=O)O)cc1)C(=O)O; Bip = N[C@@H](Cc1ccc(-c2ccccc2)cc1)C(=O)O; NH(CH2)14COOH = O=C(O)CCCCCCCCCCCCCCN*; Phe(2-Cl) = N[C@@H](Cc1ccccc1Cl)C(=O)O; Phe(3-Me) = Cc1cccc(C[C@H](N)C(=O)O)c1; NH(CH2)12COOH = O=C(O)CCCCCCCCCCCCN*; Val(3-OH) = CC(C)(O)[C@H](N)C(=O)O; Aad = N[C@@H](CCCC(=O)O)C(=O)O; Cha = N[C@@H](CC1CCCCC1)C(=O)O; Thr(3ξ) = CC(O)[C@H](N)C(=O)O; Carboxymethyl = O=C(O)C*; Orn = NCCC[C@H](N)C(=O)O; Aun = NCCCCCCCCCCC(=O)O; Dab = NCC[C@H](N)C(=O)O; Dap = NC[C@H](N)C(=O)O; AEEA = NCCOCCOCC(=O)O; ξC = NC(CS)C(=O)O

target: T1, PD-1/PD-L1 interaction (PE-labeled human PD-L1-Ig binding to Jurkat cell line over-expressing human PD-1) (Homo sapiens, UniProt Q15116); test: Jurkat-PD-1 Cell Binding High-Content Screening Assay (CBA); type: cell-based; conditions: Jurkat cell line over-expressing human PD-1; PE-labeled PD-L1-Ig 20 nM final; read-out: Jurkat hPD1-PDL1 IC50
T1 construct: expressed in transfected cells; host or cells: Jurkat
T1 sequence (Q15116 25-288): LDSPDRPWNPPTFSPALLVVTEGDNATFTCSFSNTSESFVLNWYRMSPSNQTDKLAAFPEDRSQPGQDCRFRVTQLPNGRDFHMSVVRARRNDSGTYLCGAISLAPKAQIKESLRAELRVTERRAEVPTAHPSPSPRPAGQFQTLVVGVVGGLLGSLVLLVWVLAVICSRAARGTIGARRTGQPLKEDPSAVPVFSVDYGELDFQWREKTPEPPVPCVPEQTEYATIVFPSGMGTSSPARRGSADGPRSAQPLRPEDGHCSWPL
Summary of the method: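 Jurkat cells over-expressing human PD-1 (8×10^3 per well, DMEM/10% FCS) preincubated with compound 2 h at 37° C, then PE-labeled human PD-L1-Ig (20 nM final) added for 1 h. Cells fixed with paraformaldehyde, Hoechst-stained, and bound fluorescence quantified by high-content imaging.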

SMILES	IC50
Cc1cccc(C[C@@H]2NC(=O)[C@H](CC(=O)O)NC(=O)[C@H](Cc3ccc(OCC(=O)O)cc3)NC(=O)[C@H](CN)NC(=O)CSC[C@@H](C(=O)N[C@@H](CCN)C(=O)NCCOCCOCC(=O)NCCCCCCCCCCC(=O)O)NC(=O)[C@H](CCC(=O)O)NC(=O)[C@H](C(C)C)NC(=O)[C@H](Cc3ccccc3Cl)NC(=O)[C@H](CCN)NC(=O)[C@@H](CC(C)C)NC(=O)[C@H](CCCN)NC(=O)[C@H](Cc3ccc(OCC(=O)O)cc3)NC(=O)[C@H](Cc3ccc(-c4ccccc4)cc3)NC(=O)[C@H](Cc3ccc(C(=O)O)cc3)NC2=O)c1 [Compound 1277] ({CH2CO}-[Dap]Y(Carboxymethyl)D[Phe(3-Me)][Phe(4-COOH)][Bip]Y(Carboxymethyl)[Orn][dL][Dab][Phe(2-Cl)]VEC[Dab][AEEA][Aun]-OH; thioether N-14)	0.0144 µM
CC(C)C[C@H]1NC(=O)[C@H](Cc2cnc[nH]2)NC(=O)[C@H](Cc2ccc(OCC(=O)O)cc2)NC(=O)[C@H](Cc2ccc(-c3ccccc3)cc2)NC(=O)[C@H](Cc2ccc(C(=O)O)cc2)NC(=O)[C@H](Cc2cccc(C(F)(F)F)c2)NC(=O)[C@H](CC(=O)O)NC(=O)[C@H](Cc2ccc(OCC(=O)O)cc2)NC(=O)[C@H](C)NC(=O)CSC[C@@H](C(=O)N[C@@H](CCN)C(=O)NCCCCCCCCCCCCCCC(=O)O)NC(=O)[C@H](C(C)O)NC(=O)[C@H](C(C)(C)O)NC(=O)[C@H](CC2CCCCC2)NC(=O)[C@H](CCN)NC1=O (stereo partly drawn) [Compound 3862] ({CH2CO}-AY(Carboxymethyl)D[Phe(3-CF3)][Phe(4-COOH)][Bip]Y(Carboxymethyl)H[dL][Dab][Cha][Val(3-OH)][Thr(3ξ)]C[Dab]-{NH(CH2)14COOH}; thioether N-14)	0.368 µM

Further molecules by falling IC50, results first:

IC50	SMILES
0.0274 µM	CC(C)C[C@H]1NC(=O)[C@H](CCCN)NC(=O)[C@H](C(C)C)NC(=O)[C@H](Cc2ccc(-c3ccccc3)cc2)NC(=O)[C@H](C(C)C)NC(=O)[C@H](Cc2c[nH]c3ccccc23)NC(=O)[C@H](CC(=O)O)NC(=O)[C@H](Cc2ccc(OCC(=O)O)cc2)NC(=O)[C@H](CN)NC(=O)CSCC(C(=O)N[C@H](CC(=O)O)C(=O)NCCCCCCCCCCC(=O)O)NC(=O)[C@H]([C@@H](C)O)NC(=O)[C@H](C(C)C)NC(=O)[C@H](CC2CCCCC2)NC(=O)[C@H](Cc2cnc[nH]2)NC1=O (stereo partly drawn) [Compound 1121] ({CH2CO}-[Dap]Y(Carboxymethyl)DWV[Bip]V[Orn][dL]H[Cha]VT[ξC][dD][Aun]-OH; thioether N-14)
0.0179 µM	Cc1cccc(C[C@@H]2NC(=O)[C@H](CC(=O)O)NC(=O)[C@H](Cc3ccc(OCC(=O)O)cc3)NC(=O)[C@H](CCCC(=O)O)NC(=O)CSC[C@@H](C(=O)N[C@@H](CCN)C(=O)NCCCCCCCCCCCCC(=O)O)NC(=O)[C@H](CO)NC(=O)[C@H](C(C)(C)O)NC(=O)[C@H](CC3CCCCC3)NC(=O)[C@H](CCN)NC(=O)[C@@H](CC(C)C)NC(=O)[C@H](CCCN)NC(=O)[C@H](Cc3ccc(OCC(=O)O)cc3)NC(=O)[C@H](Cc3ccc(-c4ccccc4)cc3)NC(=O)[C@H](Cc3ccc(OCC(=O)O)cc3)NC2=O)c1 [Compound 2259] ({CH2CO}-[Aad]Y(Carboxymethyl)D[Phe(3-Me)]Y(Carboxymethyl)[Bip]Y(Carboxymethyl)[Orn][dL][Dab][Cha][Val(3-OH)]SC[Dab]-{NH(CH2)12COOH}; thioether N-14)
0.0113 µM	CC(C)C[C@H]1NC(=O)[C@H](CCCN)NC(=O)[C@H](C(C)C)NC(=O)[C@H](Cc2ccc(-c3ccccc3)cc2)NC(=O)[C@H](C(C)C)NC(=O)[C@H](Cc2c[nH]c3ccccc23)NC(=O)[C@H](CC(=O)O)NC(=O)[C@H](Cc2ccc(OCC(=O)O)cc2)NC(=O)[C@H](Cc2ccc(OCC(=O)O)cc2)NC(=O)CSC[C@@H](C(=O)N[C@@H](CCN)C(=O)NCCOCCOCC(=O)NCCCCCCCCCCC(=O)O)NC(=O)[C@H](CCCN)NC(=O)[C@H](C(C)C)NC(=O)[C@H](CC2CCCCC2)NC(=O)[C@H](CCN)NC1=O [Compound 2553] ({CH2CO}-Y(Carboxymethyl)Y(Carboxymethyl)DWV[Bip]V[Orn][dL][Dab][Cha]V[Orn]C[Dab][AEEA][Aun]-OH; thioether N-14)
